Reference: US8940774B2, “Tris-Quaternary Ammonium Salts and Methods for Modulating Neuronal Nicotinic Acetylcholine Receptors” (University of Kentucky Research Foundation, priority 2005, dated 2015)

Assays:
[1] = system: NIC-evoked [3H]DA release from rat striatal slices; assay: Nicotine-evoked [3H]dopamine release assay, superfused rat striatal slices; type: cell-based; conditions: 100 nM analog superfused 60 minutes prior to NIC (10 μM), percent of that in the absence of analog
Protocol: Rat striatal slices (500 μm thickness, 6-8 mg wet weight) were incubated for 30 minutes in Krebs buffer (118 mM NaCl, 4.7 mM KCl, 1.2 mM MgCl2, 1.0 mM NaH2PO4, 1.3 mM CaCl2, 11.1 mM glucose, 25 mM NaHCO3, 0.11 mM L-ascorbic acid and 0.004 mM disodium EDTA; pH 7.4, and saturated with 95% O2/5% CO2) in a metabolic shaker at 34° C. Slices were rinsed with 15 mL of fresh buffer and incubated for an additional 30 minutes in fresh buffer containing 0.1 μM [^3H]dopamine (DA; 6 slices/3 mL). Subsequently, slices were rinsed with 15 mL of fresh buffer and transferred to a glass superfusion chamber. Slices were superfused (1.0 mL/min) for 60 minutes with Krebs buffer containing nomifensine (10 μM) and pargyline (10 μM) and maintained at 34° C., pH 7.4 with continual aeration (95% O2/5% CO2). Two five minute samples (5 mL each) were collected to determine basal outflow of [^3H]DA. Analogs were added to the superfusion buffer after the collection of the second sample and remained in the buffer until 12 consecutive five minute samples were collected. Subsequently, S-(−)-nicotine (10 μM) was added to the buffer and an additional 12 consecutive five minute samples were collected. At the end of the experiment, each slice was solubilized and the [^3H] content of the tissue determined.
Radioactivity in the superfusate and tissue samples were determined by liquid scintillation spectroscopy. Fractional release for tritium collected in each sample was divided by the total tritium present at the time of sample collection and was expressed as a percentage of total tritium. Basal [^3H] outflow was calculated from the average of the tritium collected in the two five-minute samples just before addition of the analog. The sum of the increase in collected tritium resulting from either exposure to the test compound or exposure to S-(−)-nicotine in the absence cod presence of the test compound equaled total [^3H] overflow. [^3H] Overflow was calculated by subtracting the [^3H] outflow during an equivalent period of prestimulation from the values in samples collected during and after drug exposure. Inasmuch as the radiolabelled compounds were not separated and identified, the tritium in the superfusate is referred to as either [^3H] outflow or [^3H] overflow, rather than [^3H]DA. [^3H] Overflow primarily represents [^3H]DA in the presence of nomifesine and pargyline in the superfusion buffer. […]
Analogs were also evaluated for their ability to inhibit NIC evoked [^3H]DA release. In these experiments, the striatal slices were superfused for 60 minutes with 100 nM concentration of the analogs prior to NIC (10 μM) exposure. Antagonist activity was evaluated by comparing the NIC-evoked [^3H] overflow in the absence and presence of the analogs. The relative order of potency of the analogs for inhibition of NIC-evoked [^3H]DA release from rat striatal slices is illustrated in Table 1.
(§1) Data are % inhibition at 100 nM concentration of analog for at least 1-3 independent experiments. Specific binding in the [^3H]NIC binding assay is calculated at the difference between the total binding of [^3H]NIC and nonspecific binding in the presence of 10 μM cold nicotine. Specific binding for the [^3H]MLA binding assay is calculated as the difference between the total binding of 2.5 nM [^3H]MLA to the receptors alone and its nonspecific binding in the presence of 1 μM cold MLA. Analog-induced inhibition of nicotine-evoked [^3H]DA release is calculated as a percent of that in the absence of analog.

[2] = target: T1, Rat Striatal Nicotinic Receptors (Rattus norvegicus, UniProt P09483+P12390); assay: Inhibition of [3H]Nicotine (NIC) binding assay, rat striatal membranes; conditions: % inhibition at 100 nM concentration of analog, 3 nM [3H]NIC
T1 construct: from tissue; host or cells: rat striatal membranes
T1 sequence (P09483 31-630): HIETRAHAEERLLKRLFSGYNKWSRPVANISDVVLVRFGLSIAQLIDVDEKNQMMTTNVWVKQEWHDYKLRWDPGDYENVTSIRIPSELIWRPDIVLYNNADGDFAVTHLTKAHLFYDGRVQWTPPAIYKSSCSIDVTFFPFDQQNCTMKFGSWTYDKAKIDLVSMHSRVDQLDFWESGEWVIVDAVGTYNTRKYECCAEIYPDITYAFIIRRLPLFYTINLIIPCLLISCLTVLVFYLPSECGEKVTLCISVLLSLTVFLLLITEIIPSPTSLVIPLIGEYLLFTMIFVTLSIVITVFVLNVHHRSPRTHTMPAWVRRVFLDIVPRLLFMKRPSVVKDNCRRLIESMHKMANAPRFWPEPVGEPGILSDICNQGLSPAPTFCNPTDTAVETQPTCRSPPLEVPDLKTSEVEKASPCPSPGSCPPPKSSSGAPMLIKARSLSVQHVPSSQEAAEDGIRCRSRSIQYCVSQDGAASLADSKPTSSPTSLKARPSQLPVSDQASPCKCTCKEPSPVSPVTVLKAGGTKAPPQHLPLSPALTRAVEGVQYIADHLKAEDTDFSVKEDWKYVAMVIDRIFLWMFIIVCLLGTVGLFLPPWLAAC
T1 sequence (P12390 25-500): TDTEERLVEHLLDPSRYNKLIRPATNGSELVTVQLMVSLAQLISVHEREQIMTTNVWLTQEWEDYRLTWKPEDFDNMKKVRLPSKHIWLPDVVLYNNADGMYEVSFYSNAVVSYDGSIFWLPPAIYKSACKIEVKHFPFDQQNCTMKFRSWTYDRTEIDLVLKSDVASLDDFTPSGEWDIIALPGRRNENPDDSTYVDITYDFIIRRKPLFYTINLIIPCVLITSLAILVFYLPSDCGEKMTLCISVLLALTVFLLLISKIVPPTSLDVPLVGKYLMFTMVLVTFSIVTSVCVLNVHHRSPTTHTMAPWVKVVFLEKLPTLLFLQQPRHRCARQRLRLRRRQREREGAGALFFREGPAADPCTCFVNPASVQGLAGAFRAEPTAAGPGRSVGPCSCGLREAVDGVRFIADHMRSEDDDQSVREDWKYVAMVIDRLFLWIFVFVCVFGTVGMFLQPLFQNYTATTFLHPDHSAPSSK
Protocol: Striata from two rats were dissected, pooled, and homogenized with a Tekmar polytron in 10 vol of ice-cold modified Krebs-HEPES buffer (20 mM HEPES, 118 mM NaCl, 4.8 mM, KCl, 2.5 mM CaCl2, 1.2 mM MgSO4, adjusted to pH 7.5). The homogenates were incubated at 37° C. for 5 minutes and centrifuged at 15,000 g for 20 minutes. The pellet was resuspended in 10 volumes of ice-cold MilliQ water, incubated for 5 minutes at 37° C., and centrifuged at 15,000 g for 20 minutes. The second pellet was then resuspended in 10 volumes of fresh ice-cold 10% Krebs-HEPES buffer, incubated at 37° C., and centrifuged at 15,000 g for 20 minutes. The latter sequence of resuspension, incubation and centrifugation was repeated. The pellet was frozen under fresh 10% Krebs-HEPES buffer and stored at −40° C. until assay. Upon assay, the pellet was resuspended in Krebs-HEPES buffer, incubated at 37° C. for 5 minutes, and centrifuged at 15,000 g for 20 minutes. The final pellet was resuspended in 3.6 mL ice-cold MilliQ water which provided for approximately 200 μg protein per 100 μL aliquot. Competition assays were performed in duplicate in a final volume of 200 μL Krebs-HEPES buffer containing […] Tris buffer (pH 7.5 at 4° C.). Reactions were initiated by addition of 100 μL of membrane suspension to 3 nM [^3H]NIC (50 μL) and one of at least nine concentrations of analog (50 μL). After a 90 minute incubation at 4° C., reactions were terminated by dilution of the samples with 3 mL of ice-cold Krebs-HEPES buffer followed immediately by filtration through Whatman GF/B glass fiber filters (presoaked in 0.5% polyethyleneimine) using a Brandel Cell Harvester. Filters were rinsed three times with 3 mL of ice-cold Krebs-HEPES buffer, transferred to scintillation vials, and 5 mL scintillation cocktail (Research Products international Corp., Mt. Prospect, Ill.) added. Nonspecific binding determined in triplicate was defined as binding in the presence of 10 μM NIC. Binding parameters were determined using the weighted, least squares non-linear regression. The tris-quaternary ammonium salts were evaluated for their ability to displace [^3H]NIC binding from rat striatal membranes.
as §1

[3] = target: T2, α7-type neuronal nicotinic acetylcholine receptors (Rattus norvegicus, UniProt Q05941); assay: Inhibition of [3H]Methyllycaconitine (MLA) binding assay, rat brain membranes; conditions: % inhibition at 100 nM concentration of analog; rat brain membranes; 2.5 nM [3H]MLA; read-out: Inhibition of [3H]MLA binding
T2 construct: from tissue; host or cells: rat brain membranes (whole brain without cortex, striatum and cerebellum)
T2 sequence (Q05941 23-502): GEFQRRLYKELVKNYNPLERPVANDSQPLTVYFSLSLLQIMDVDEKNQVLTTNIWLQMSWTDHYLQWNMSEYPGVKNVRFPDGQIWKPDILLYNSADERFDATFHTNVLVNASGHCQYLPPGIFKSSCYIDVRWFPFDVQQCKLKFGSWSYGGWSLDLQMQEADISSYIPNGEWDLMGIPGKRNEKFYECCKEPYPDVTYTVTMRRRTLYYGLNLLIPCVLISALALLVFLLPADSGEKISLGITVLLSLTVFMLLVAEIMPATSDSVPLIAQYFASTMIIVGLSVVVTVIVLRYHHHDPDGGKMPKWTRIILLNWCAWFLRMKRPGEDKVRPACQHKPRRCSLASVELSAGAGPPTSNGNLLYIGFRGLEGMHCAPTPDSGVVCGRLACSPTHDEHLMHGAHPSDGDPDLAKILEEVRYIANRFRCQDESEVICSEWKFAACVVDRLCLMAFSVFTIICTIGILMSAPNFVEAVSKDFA
Protocol: Rat brain was dissected into the whole brain tissue without cortex, striatum and cerebellum and was frozen in liquid nitrogen and stored at −70° C. until use. The brain tissue was homogenized with a Tekmar Polytron (setting 40) in 20 volumes of ice-cold hypotonic buffer (2 mM HEPES, 14.4 mM NaCl, 0.15 mM KCl, 0.2 mM CaCl2 and 0.1 mM MgSO4, pH=7.5). The homogenate was incubated at 37° C. for 10 minutes and centrifuged at 25,000 g for 15 minutes at […] The pellet was washed 3 times more by resuspension in 20 volumes of the same buffer and centrifugation at the above parameters. The final pellet was stored at −20° C. under 4.6 mL of the incubation buffer and was suspended just before the incubation with radioligand.
The binding of [^3H]MLA to probe α7-type neuronal nicotinic acetylcholine receptors was measured using a modification of the method of Davies at al., “Characterisation of the binding of [^3H]methyllycaconitine (MLA): a radioligand for labelling α7-type neuronal nicotinic acetylcholine receptors,” Neuropharmacology, 38, 679-690 (1999). [^3H]MLA (25.4 Ci/mmol) was purchased from Tocris Cookson Ltd., Bristol, U.K. Binding was performed in duplicate, in a final volume of 250 μL of the incubation medium, containing 20 mM HEPES, 144 mM NaCl, 1.5 mM KCl, 2 mM CaCl2, 1 mM MgSO4 and 0.05% BSA, pH=7.5. Reaction was initiated by the addition of 100 μL of membrane suspension to the samples containing a desired concentration of test compounds and […] [^3H]MLA (final concentration) and incubated for 2 hours it room temperature. Total binding was measured in the absence of unlabelled ligand, and nonspecific binding was determined by the presence of 1 μM unlabelled MLA. The binding reaction was terminated by dilution of samples with 3 mL of ice-cold incubation buffer followed by immediate filtration through glass fiber filters (S&S, grade #32, presoaked in 0.5% polyethylenimine) using a Brandel harvester system. Filters were rinsed three times with 3 mL of ice-cold buffer, transferred to scintillation vials and 4 mL of scintillation cocktail was added. Protein was measured using the Bradford dye-binding procedure with bovine serum albumin as the standard.
The tris-quaternary ammonium salts were evaluated for their ability to displace [^3H]MLA binding from rat brain membranes.
as §1

Compound	inhibition at 0.1 µM [1] [%]	inhibition at 0.1 µM [2] [%]	inhibition at 0.1 µM [3] [%]
Cc1cc(C)c[n+](CCCCCc2cc(CCCCC[n+]3cc(C)cc(C)c3)cc(CCCCC[n+]3cc(C)cc(C)c3)c2)c1 [GZ557A, 1,3,5-tris-[5-(3,5-lutidinium)-pentyl]-benzene tribromide]	39 ± 18	11 ± 2.9	6.5 ± 3.6
Cc1cc[n+](CCCCCc2cc(CCCCC[n+]3ccc(C)c(C)c3)cc(CCCCC[n+]3ccc(C)c(C)c3)c2)cc1C [GZ557B, 1,3,5-tris-[5-(3,4-lutidinium)-pentyl]-benzene tribromide]	50 ± 21	9.3 ± 4.1	0.2 ± 0.2
c1ccc(-c2ccc[n+](CCCCCc3cc(CCCCC[n+]4cccc(-c5ccccc5)c4)cc(CCCCC[n+]4cccc(-c5ccccc5)c4)c3)c2)cc1 [GZ558A, 1,3,5-tris-[5-(3-phenyl-pyridinium)-pentyl]-benzene tribromide]	6 ± 5	14 ± 5.8	19 ± 1.7
CCCCc1ccc[n+](CCCCCc2cc(CCCCC[n+]3cccc(CCCC)c3)cc(CCCCC[n+]3cccc(CCCC)c3)c2)c1 [GZ558B, 1,3,5-tris-[5-(3-butyl-pyridinium)-pentyl]-benzene tribromide]	68 ± 14	6.2 ± 4	4.4 ± 3.3
